Data taken from article PMC6013238, “Development of novel NEMO-binding domain mimetics for inhibiting IKK/NF-κB activation” (PLoS Biology, 2018).
Entries after “also recorded” stand apart in the source; their conditions may differ.

Legend:
Format in all cases: cell-based, mouse
[1] = tested on: phosphorylated IKK complex, IκBα and p65; test: Western blot of IKK/NF-κB signaling in Raw 264.7 cells (TNF-α or LPS); details: 150 μM (S2A Fig: 0-150 μM), 30 min; TNF-α 10 ng/ml or LPS 1 μg/ml 10 min
Experimental: (§1) To determine whether the novel NBD mimetics target the NEMO-IKKβ interaction in vivo, co-immunoprecipitations were performed using extracts from Raw 264.7 macrophages (Fig 5A). […] No interaction between NEMO and TNF receptor-associated factor 2 (TRAF2) or IκBα was observed under these conditions. […] The levels of phosphorylated IKK complex, IκBα, and p65 in response to TNF-α and LPS were all reduced by SR12343 (Fig 5D & 5E). […] However, there were no changes in the levels of phospho-c-Jun N-terminal kinase (p-JNK), p-p38MAPK, total JNK, and p38MAPK by treatment with SR12343 (150 μM) in response to TNF-α or LPS stimulation (Fig 5G & 5H). […]
(§2) (A) Co-IP analysis detecting the IKKβ/NEMO interaction. […] NEMO-binding products were then analyzed for levels of IKKβ, IKKα, TRAF2, and IκBα (negative control), and levels of NEMO were used as a loading control (left panel). […] The levels of IKKβ-FLAG binding to GST-NEMO were determined by western blot analysis with GST-NEMO used as a loading control. […] Cell lysates were analyzed for activity of the IKK/NF-κB signaling pathway including activation of IKK complex, IκBα, and p65. […] Cell lysates were harvested and analyzed for activation of noncanonical NF-κB signaling, the processing of p100 to p52. […]

JNK/p38MAPK signaling = test: Western blot of JNK and p38MAPK phosphorylation in Raw 264.7 cells; details: 150 μM; TNF-α or LPS stimulation
Experimental: as §1, §2

[2] = tested on: noncanonical NF-κB pathway; test: Noncanonical NF-κB pathway, anti-LTβR-stimulated Raw 264.7 cells (p100 to p52 processing); details: 100 μM, 30 min; anti-LTβR 8 h
Experimental: as §1, §2

## O=C(CNc1ccc(Cl)cn1)NCCc1cccc(Br)c1 [SR12343]
[1]
  Levels of phosphorylated IKK complex, IκBα and p65: inhibited phosphorylation of IKKα/β and p65 and prevented IκBα from degradation; also recorded: all reduced
JNK/p38MAPK signaling
  Levels of p-JNK, p-p38MAPK, total JNK and p38MAPK: no changes
[2]
  Activation of noncanonical NF-κB pathway (p100 to p52 processing): no effect
